Reference: publication PMC12530851, “Design, synthesis, and apoptotic antiproliferative activity of novel dihydropyrimidine-5-carbonitrile/1,2,4-oxadiazole hybrids as dual EGFR/VEGFR-2 inhibitors endowed with antioxidant activity” (RSC Advances, 2025)

System: A-549 (lung cancer)
Test: Antiproliferative assay, A-549
Format: cell-based
Conditions: Homo sapiens, A549; A-549 lung cancer cells; read-out: Antiproliferative activity IC50 ± SEM, A-549
From the text: The dose–response experiments established the IC50 values for the new compounds. The given findings were obtained from at least two distinct studies, each comprising three repeats per concentration. Appendix A (SI File) provides experimental details.[38,39]
The MTT assay[43] was utilized to assess the antiproliferative effects of compounds 10a–l on four human cancer cell lines: HT-29 (colon cancer), Panc-1 (pancreatic cancer), A-549 (lung cancer), and MCF-7 (breast cancer). […]
4.2.2. Assay for antiproliferative effect
To explore the antiproliferative potential of compounds propidium iodide fluorescence assay was performed using different cell lines such as Panc-1 (pancreas cancer cell line), MCF-7 (breast cancer cell line), HT-29 (colon cancer cell line) and A-549 (epithelial cancer cell line), respectively. To calculate the total nuclear DNA, a fluorescent dye (propidium iodide, PI) is used which can attach to the DNA, thus offering a quick and precise technique. PI cannot pass through the cell membrane and its signal intensity can be considered as directly proportional to quantity of cellular DNA. Cells whose cell membranes are damaged or have changed permeability are counted as dead ones. The assay was performed by seeding the cells of different cell lines at a density of 3000-7500 cells/well (in 200μl medium) in culture plates followed by incubation for 24h at 37 °C in humidified 5%CO2/95% air atmospheric conditions. The medium was removed; the compounds were added to the plates at 10 μM concentrations (in 0.1% DMSO) in triplicates, followed by incubation for 48h. DMSO (0.1%) was used as control. After incubation, medium was removed followed by the addition of PI (25 μl, 50μg/mL in water/medium) to each well of the plates. At - 80 °C, the plates were allowed to freeze for 24 h, followed by thawing at 25 °C. A fluorometer (Polar-Star BMG Tech) was used to record the readings at excitation and emission wavelengths of 530 and 620 nm for each well. The percentage cytotoxicity of compounds was calculated using […]
Where ATC= Absorbance of treated cells and AC= Absorbance of control. Erlotinib was used as positive control in the assay. […]

Row | Structure (SMILES) | IC50
1 | COc1ccc(-c2nc(SCc3nc(-c4ccc(Cl)cc4)no3)[nH]c(=O)c2C#N)cc1 [Compound 10k, 2-(((3-(4-Chlorophenyl)-1,2,4-oxadiazol-5-yl)methyl)thio)-4-(4-methoxyphenyl)-6-oxo-1,6-dihydropyrimidine-5-carbonitrile] | 23 ± 1 nM
2 | COc1ccc(-c2noc(CSc3nc(-c4ccc(OC)cc4)c(C#N)c(=O)[nH]3)n2)cc1 [Compound 10l, 2-(((3-(4-Methoxyphenyl)-1,2,4-oxadiazol-5-yl)methyl)thio)-4-(4-methoxyphenyl)-6-oxo-1,6-dihydropyrimidine-5-carbonitrile] | 28 ± 1 nM
